From US20050130906A1, “Amelioration of macular degeneration and other ophthalmic diseases” (priority 2003, published 2005)

Assays:
[1] = test system: blue light-illuminated A2E-laden RPE (ARPE-19 cells); assay: Protection against A2E-mediated blue light damage (MTT assay and two-color fluorescence cell death assay); type: cell-based
Text: The ability of Tempol-H to protect against A2E-mediated blue light damage was examined.
Materials and Methods: ARPE-19 cells that have accumulated A2E in culture were exposed to 430±20 nm light delivered from a halogen source. This wavelength of light is relevant since (i) the excitation maximum of A2E is approximately 430 nm, and (ii) light of this wavelength reaches the RPE in vivo while light of wavelengths longer than 400 nm are not absorbed by the cornea and lens. Cell death in blue light-illuminated A2E-laden RPE was compared with and without pre-treatment (24 hours) with Tempol-H. The loss of cell viability was quantified by: • 1. A calorimetric microtiter assay based on ability of healthy metabolically active cells to cleave the yellow tetrazolium salt MTT to purple formazan crystals. Cell viability was assessed 24 hours after blue light illumination. Triplicate wells were assayed in each of 2 experiments.
2. Two-color fluorescence assay in which the nuclei of all dead cells appear red due to staining by a membrane-impermeant dye (Dead Red nuclei acid stain, Molecular Probes) with the nuclei of all cells stained blue with DAPI. Cell viability was assessed 8 hours after blue light illumination. Replicates were assayed by counting cells within 5 microscopic fields within the area of illumination in each well and 3 wells were assayed per experiment. Data are based on 3 experiments.

[2] = test system: lens epithelial cells; conditions: Mitchell et al. 1991; Krishna et al. 1991; cited from earlier work
[3] = test system: cataract; conditions: Zigler et al., U.S. Pat. No. 6,001,853; cited from earlier work
[4] = test system: retinal S-antigen-induced experimental autoimmune uveoretinitis (EAU); conditions: rat model, after systemic injection; Zamir et al. 1999; cited from earlier work

**Q.** Which results are given for `CC1(C)CC(O)CC(C)(C)N1O` [Tempol-H]?
**A.** protection of blue light-illuminated A2E-laden RPE cells ([1]; 1 mM, FIG. 2): protection; protection against the death of A2E-laden RPE ([1]; blue light 430±20 nm, 24 hours pre-treatment, FIG. 1 and FIG. 2): dose-dependent protection; protection of blue light illuminated A2E-laden RPE cells ([1]; various concentrations, FIG. 1): protect; protection of lens epithelial cells from oxidative damage [2]: afforded no such protection; anti-cataractogenic activity compared with the corresponding nitroxide [3]: better anti-cataractogenic composition than the corresponding nitroxide

**Q.** For `CC1(C)CC(O)CC(C)(C)N1[O]` [tempol, 4-hydroxy-2,2,6,6,-tetramethylpiperidine-1-N-oxyl], which “severity of EAU” value [4] is on record?
**A.** The value was “reduced the severity”.
